In patent US8372810B2, “Anti-tumor drug, medicament, composition, and use thereof” (Gene Signal International SA, priority 2007, dated 2013):
Values joined by “and” are separate entries in the source; they are usually repeats but may differ in a detail not shown here. Identical values can stand only once. “Also recorded” adds a separate entry of the source.

Legend:
HUVEC = assay: Wound assay, migration of human endothelial cells; format: cell-based; settings: 18 hours; 497C-T2 0.83 and 1.66 μM; 497C-T3 2.4 μM; 497C-T4 3.52 μM; 497C-T5 3.65 μM; C-terminal tail 4.92 μM
Description: Cell migration was tested by the wound assay described by Sato and Rifkin (J Cell Biol. 1988; 107:1199) with few modifications. HUVEC grown in growth medium EGM-2MV (Cambrex) were seeded in 24-well plates at 80 000 cells per well in 500 μL of growth medium and grown to confluence at 37° C. in a humidified atmosphere containing 5% CO2. Cells were scrapped with a plastic tip on one line only. After wounding, the culture medium was changed for fresh medium (control, FIG. 3a) or fresh medium supplemented with: • FIG. 3b: 497C-T2 20 μg/mL (0.83 μM) • FIG. 3c: 497C-T2 40 μg/mL (1.66 μM) • FIG. 3d: 497C-T3 48 μg/mL (2.4 μM) • FIG. 3e: 497C-T4 60 μg/mL (3.52 μM) • FIG. 3f: 497C-T5 61 μg/mL (3.65 μM) • FIG. 3g: C-terminal tail 63 μg/mL (4.92 μM)
After 18 hours of culture, cells were observed and photographed under the inverted microscope (Analysis, Olympus, Rungis, France).

NCI H460 human tumor = NCI H460 human tumor xenograft in Swiss Nude mice, tumor growth; format: in vivo; parameters: key to MRTV D28 / MRTV D12 / MRTV D14 / MRTV D16 / MRTV D18 / MRTV D20 / MRTV D22 / MRTV D24 / MRTV D26: ratio of mean tumor volume at day t to volume at injection (D12)
Description: NCI H460 cells were cultured as adherent cells in complete RPMI 1640 medium (Ref. CM1RRM08-01, batch No. 623615, Eurobio, France) containing 2 mM L-Glutamine, adjusted to 4.5 g/L glucose (Ref. G7528, batch No. 033K0121, Sigma, France) and supplemented with 10 mM HEPES (Ref. H0887, batch No. 113K2338, Sigma, France), 1.0 mM sodium pyruvate (Ref. CSTVAT00-0U, batch No. 520818, Sigma, France) and 10% fetal calf serum (FCS; Ref. CVFSVF00-01, batch No. S13021, Eurobio, France) under a 37° C., 5% CO2 humidified atmosphere. They were amplified in 75 cm^2-flasks to reach 90×10^6 cells.
At D0, NCI H460 cells (human lung carcinoma) were collected from 75 cm^2-flasks by removing the medium and adding 3 ml of trypsine-EDTA (Ref. CEZTDA00-0U, batch No. 633920, Eurobio, France). After 5 min of incubation at 37° C., cells were detached from the plastic and the enzymatic reaction was stopped by adding 3 ml of RPMI 1640 medium containing 10% fetal calf serum. Cells were then centrifuged at 700 g for 5 min at room temperature. They were resuspended in serum-free RPMI 1640 culture medium containing L-Glutamine (2 mM), glucose (4.5 g/l), sodium pyruvate (1 mM) and buffered with HEPES (10 mM). Cells were counted and the number of viable NCI H460 cells was >99%. The number of cells was then adjusted to 25.10^6 cells/ml in serum-free medium.
NCI H460 cells (5.10^6 cells/mouse in 200 μL of serum-free medium) were then implanted subcutaneously in the right flank of each mouse.
At D12 post-implantation of the NCI H460 cells, the thirty mice were randomized into six groups of 5 mice. Tumor volumes had reached 228 to 468 mm^3 and mean tumor volumes were not statistically different between groups after randomization.
All solutions were injected IP.
Animals have been observed daily.
• Tumor growth curves were drawn using the mean tumor volumes (MTV), • Mean Relative tumor volume (MRTV) was calculated as the ratio between the MTV at time t and the volume at the time of injection (t=D12), • Tumor growth inhibition (T/C, %) was evaluated as the ratio of the median tumor volumes of treated groups versus vehicle group.
Statistical analyses of tumor volumes (V), time to reach ‘V’, tumor-doubling time (DT), relative tumor volume (RTV) and tumor growth inhibition (T/C) were performed for all groups. Data are expressed as mean±SD. Groups of data were normally distributed. Univariate analysis were performed to assess differences between groups. Statistical significance was then determined using the Student's t test. A P<0.05 was considered as statistically significant. The Statistical analysis was performed using XLSTAT (Addinsoft, France).

CALU-6 tumors = assay: CALU-6 non-small cell lung cancer xenograft in Swiss Nude mice, tumor growth; format: in vivo; settings: IP Q2DX8, CDDP 5 mg/kg (G2), 497C-T2 10 mg/kg (G3), 497C-T2 10 mg/kg + CDDP 5 mg/kg (G4)
Description: CALU-6 cells were cultured as adherent cells in complete EMEM medium (Ref. CM1MEM18-01, batch No. 462502, Eurobio, France) 10% fetal calf serum (FCS; Ref. CVFSVF00-01, batch No. 513021, Eurobio, France) under a 37° C., 5% CO2 humidified atmosphere. They were amplified in 75 cm^2-flasks to reach 90×10^6 cells.
At D0, CALU-6 cells (human lung carcinoma) were collected from 75 cm^2-flasks by removing the medium and adding 3 ml of trypsine-EDTA (Ref. CEZTDA00-0U, batch No. 633920, Eurobio, France). After 5 min of incubation at 37° C., cells had detached from the plastic and the enzymatic reaction was stopped by adding 3 ml of EMEM medium containing 10% fetal calf serum. Cells were then centrifuged at 700 g for 5 min at room temperature. They were resuspended in serum-free EMEM culture medium. Cells were counted and viability assessment by Trypan Blue exclusion (Ref. CSTCOL03-OU, batch No. 434511, Eurobio, France). The number of viable CALU-6 cells was >99%. The number of cells was then adjusted to 25×10^6 cells/ml in serum-free medium.
CALU-6 cells 5×10^6 cells/mouse in 200 μl of serum-free medium) were then implanted subcutaneously in the right flank of each mouse.
At D12 post-implantation of the CALU-6 cells, the thirty mice were randomized into six groups of 5 mice. Tumor volumes had reached 228 to 468 mm^3 and mean tumor volumes were not statistically different between groups after randomization.
Mean tumor volumes (MTV), mean relative tumor volume (MRTV) and tumor growth inhibition (T/C) were calculated as for example 7.

[1] = IP Q2DX8, CDDP 5 mg/kg (G2), 497C-T2 10 mg/kg (G3), 497C-T2 10 mg/kg + CDDP 5 mg/kg (G5)

For “497C-T5: d2 and e domains of the LEL domain of protein 497C, SEQ ID NO:6 (43 amino acids) (MNETDCNPQDLHNLTVAATKVNQKGCYDLVTSFMETNMGIIAG; listed as Homo sapiens)”, the “inhibition of endothelial cell migration” value (HUVEC) was “very limited anti-migratory activity; also recorded: limited activities relative to that of 497C-T2”.

In the case of “497C-T4: d1, d2 and e domains of the LEL domain of protein 497C, SEQ ID NO:5 (49 amino acids) (IPPSCCMNETDCNPQDLHNLTVAATKVNQKGCYDLVTSFMETNMGIIAG; listed as Homo sapiens)”, the “inhibition of endothelial cell migration” value (HUVEC) is reported as “less active than 497C-T2; also recorded: limited activities relative to that of 497C-T2”.

With `N.N.[Cl][Pt][Cl]` [Cisplatin, cis-diamineplatinum (II) dichloride, reference compound] the “reduction of tumor size compared to the vehicle-treated group 1” value (NCI H460 human tumor; D28, CDDP 5 mg/kg IP Q2DX8 (G2)) was 68%, the “DT (doubling time of tumor volume)” value (NCI H460 human tumor; [1]) was 5.12 ± 2.89 days and 5.12 days and the “MRTV D14” value (NCI H460 human tumor; [1]) was 1.59. For the same molecule, the “MRTV D16” value (NCI H460 human tumor; [1]) was 1.74, the “MRTV D18” value (NCI H460 human tumor; [1]) was 2.30 and the “MRTV D20” value (NCI H460 human tumor; [1]) was 2.29. For the same molecule, the “MRTV D22” value (NCI H460 human tumor; [1]) was 3.39, the “MRTV D24” value (NCI H460 human tumor; [1]) was 3.67 and the “MRTV D26” value (NCI H460 human tumor; [1]) was 3.67. For the same molecule, the “MRTV D28” value (NCI H460 human tumor; [1]) was 4.88, the “MTV at D14” value (NCI H460 human tumor; [1]) was 513.35 mm^3 and the “MTV at D24” value (NCI H460 human tumor; [1]) was 1083.74 mm^3. The “MTV at D28” value (NCI H460 human tumor; [1]) was 1440±1097 mm^3 and 1440.18 mm^3, the “MRTV D12” value (NCI H460 human tumor; reference day, IP Q2DX8, CDDP 5 mg/kg (G2), 497C-T2 10 mg/kg (G3), 497C-T2 10 mg/kg + CDDP 5 mg/kg (G5)) was 1.00 and the “MRTV D14” value (CALU-6 tumors) was 3.11. For the same molecule, the “MRTV D16” value (CALU-6 tumors) was 2.39, the “MRTV D18” value (CALU-6 tumors) was 2.66 and the “MRTV D20” value (CALU-6 tumors) was 3.08. The “MRTV D22” value (CALU-6 tumors) was 3.70, the “MRTV D24” value (CALU-6 tumors) was 4.84 and the “MRTV D26” value (CALU-6 tumors) was 4.11. The “MRTV D28” value (CALU-6 tumors) was 5.98, the “MTV at D28” value (CALU-6 tumors) was 742.44±215.85 mm^3 and the “MRTV D12” value (CALU-6 tumors; reference day) was 1.

B1: 497C-T3: c, d1, d2 and e domains of the LEL domain of protein 497C, SEQ ID NO:4 (74 amino acids) (protein, listed as Homo sapiens)
chain: QRSLSCCGVQNYTNWSTSPYFLEHGIPPSCCMNETDCNPQDLHNLTVAATKVNQKGCYDLVTSFMETNMGIIAG
For B1, the “inhibition of endothelial cell migration” value (HUVEC) was “inhibited cell migration similarly to the protein 497C-T2; also recorded: almost as potent than 497C-T2”.
